Results published in patent publication US7371207B2 (Wyeth, priority 2002, dated 2008).

Test system: gene expression in the kidney
Experiment: GeneChip microarray survey of E2 regulated gene expression, kidney
Method: FIG. 1 depicts a pattern analysis generated by a GeneChip microarray analysis. […] Two hours following the final dose, the mice were euthanized and 13 tissues removed for RNA preparation. Two independent studies were performed, with total RNA pooled from two groups of three animals for each condition. Gene expression was quantified by GeneChip microarrays using murine U74 sub A arrays. Data were analyzed for patterns indicating either ERα or ERβ dependent regulation as shown. […] The number of genes in each tissue that matched the theoretical induction (↑) or repression (↓) patterns for ERα or ERβ are indicated.
FIGS. 2A-2C show a series of bar graphs showing gene expression levels of known genes regulated in the kidney in an ERα pattern. […] Expression was measured in two independent sets of animals, with two groups of animals for each treatment in each study. A gene name abbreviation is shown above each graph, with the corresponding Unigene designation shown below.
One week later, the animals were ovariectomized.
GeneChip—Total RNA was prepared separately from each individual organ by using Trizol (Invitrogen) followed by subsequent repurification on Rneasy columns (Qiagen). In general, two pools of RNA were created using equal amounts of RNA from three mice. For small organs such as pituitary, an equal amount of RNA from six animals was combined.
Target Preparation and Array Hybridization—Total RNA was used to generate biotin labeled cRNA target as described (8) which was hybridized to the murine MG_U74Av2 probe arrays (Affymetrix, Santa Clara, Calif.) for 16 h at 45° C. Eleven biotin-labeled cRNAs at defined concentration were spiked into each hybridization and used to convert average difference values to frequencies expressed as parts per million.
The resulting data set was queried for genes whose regulation was dependent on ERα or ERβ.

`C[C@]12CC[C@@H]3c4ccc(O)cc4CC[C@H]3[C@@H]1CC[C@@H]2O` [E2, 17β-estradiol] was tested, and the “E2 Expr (/evansm/Kidney, mouse/Study 1, U74v2/WT E2 kidney (81036))” value (101979_at, AF055638, growth arrest and DNA-damage-inducible 45 gamma) was 42, the “E2 Expr (/evansm/Kidney, mouse/Study 1, U74v2/WT E2 kidney (81036))” value (102693_f_at, J00389, kallikrein 13, kallikrein 26) was 86 and the “E2 Expr (/evansm/Kidney, mouse/Study 1, U74v2/WT E2 kidney (81036))” value (102788_s_at, U70132, paired-like homeodomain transcription factor 2) was 23. For the same molecule, the “E2 Expr (/evansm/Kidney, mouse/Study 1, U74v2/WT E2 kidney (81036))” value (103048_at, M12731, neuroblastoma myc-related oncogene 1) was 39, the “E2 Expr (/evansm/Kidney, mouse/Study 1, U74v2/WT E2 kidney (81036))” value (103556_at, AI840158, angiopoletin-like 2) was 24 and the “E2 Expr (/evansm/Kidney, mouse/Study 1, U74v2/WT E2 kidney (81036))” value (103729_at, M36775, laminin, alpha 1) was 17. The “E2 Expr (/evansm/Kidney, mouse/Study 1, U74v2/WT E2 kidney (81036))” value (103739_at, AW230977, RIKEN cDNA 1110017N23 gene) was 33, the “E2 Expr (/evansm/Kidney, mouse/Study 1, U74v2/WT E2 kidney (81036))” value (104221_at, AB017189, solute carrier family 7 (cationic amino acid transporter, y+ system), member 5) was 61 and the “E2 Expr (/evansm/Kidney, mouse/Study 1, U74v2/WT E2 kidney (81036))” value (104477_at, AW047643, Mm.29940) was 15. For the same molecule, the “E2 Expr (/evansm/Kidney, mouse/Study 1, U74v2/WT E2 kidney (81036))” value (104495_f_at, Y00500, kallikrein 5) was 115, the “E2 Expr (/evansm/Kidney, mouse/Study 1, U74v2/WT E2 kidney (81036))” value (104497_f_at, X03994, kallikrein 8) was 53 and the “E2 Expr (/evansm/Kidney, mouse/Study 1, U74v2/WT E2 kidney (81036))” value (104550_at, AW123273, ?CYP2S1 Cytochrome P450) was 22. The “E2 Expr (/evansm/Kidney, mouse/Study 1, U74v2/WT E2 kidney (81036))” value (104776_at, AA600617, Mm.33238) was 4, the “E2 Expr (/evansm/Kidney, mouse/Study 1, U74v2/WT E2 kidney (81036))” value (104880_at, AI843154, Mm.33730) was 2 and the “E2 Expr (/evansm/Kidney, mouse/Study 1, U74v2/WT E2 kidney (81036))” value (105737_at, AI851277, Mm.39735) was 8. For the same molecule, the “E2 Expr (/evansm/Kidney, mouse/Study 1, U74v2/WT E2 kidney (81036))” value (106195_at, AI851948, Mm.22808) was 8, the “E2 Expr (/evansm/Kidney, mouse/Study 1, U74v2/WT E2 kidney (81036))” value (107993_at, AI847249, Mm.27680) was 9 and the “E2 Expr (/evansm/Kidney, mouse/Study 1, U74v2/WT E2 kidney (81036))” value (108265_at, AW120464, Mm.54158) was 12. The “E2 Expr (/evansm/Kidney, mouse/Study 1, U74v2/WT E2 kidney (81036))” value (108749_at, AA611885, Mm.23047) was 34, the “E2 Expr (/evansm/Kidney, mouse/Study 1, U74v2/WT E2 kidney (81036))” value (108851_at, AW125899, Ras-like protein) was 10 and the “E2 Expr (/evansm/Kidney, mouse/Study 1, U74v2/WT E2 kidney (81036))” value (109176_at, AI846059, RAI17 Retinoic acid Induced 17) was 79. For the same molecule, the “E2 Expr (/evansm/Kidney, mouse/Study 1, U74v2/WT E2 kidney (81036))” value (110591_at, AA270831, SH3 domain protien D19) was 23, the “E2 Expr (/evansm/Kidney, mouse/Study 1, U74v2/WT E2 kidney (81036))” value (110767_r_at, AA959550, vascular endothelial growth factor) was 37 and the “E2 Expr (/evansm/Kidney, mouse/Study 1, U74v2/WT E2 kidney (81036))” value (110850_at, AA959574, NRIP1 Nuclear receptor interacting protein 1, RIP140) was 76. For the same molecule, the “E2 Expr (/evansm/Kidney, mouse/Study 1, U74v2/WT E2 kidney (81036))” value (111046_r_at, AI957367, 17b dehydrogenase A homolog) was 17, the “E2 Expr (/evansm/Kidney, mouse/Study 1, U74v2/WT E2 kidney (81036))” value (113125_at, AI851671, signal transducer and activator of transcription 5B) was 31 and the “E2 Expr (/evansm/Kidney, mouse/Study 1, U74v2/WT E2 kidney (81036))” value (114903_at, AI447633, Mm.26357) was 96. For the same molecule, the “E2 Expr (/evansm/Kidney, mouse/Study 1, U74v2/WT E2 kidney (81036))” value (116273_at, AW123862, Mm.31953) was 7, the “E2 Expr (/evansm/Kidney, mouse/Study 1, U74v2/WT E2 kidney (81036))” value (117208_at, AI838208, RIKEN cDNA 1110003O08 gene) was 37 and the “E2 Expr (/evansm/Kidney, mouse/Study 1, U74v2/WT E2 kidney (81036))” value (129147_r_at, AI931796, similar to TYROSINE-PROTEIN KINASE RECEPTOR TIE-1 PRECURSOR) was 6. For the same molecule, the “E2 Expr (/evansm/Kidney, mouse/Study 1, U74v2/WT E2 kidney (81036))” value (131149_at, AW214502, RIKEN cDNA 5033417D07 gene) was 7, the “E2 Expr (/evansm/Kidney, mouse/Study 1, U74v2/WT E2 kidney (81036))” value (131226_at, AI842542, Mm.23157) was 8 and the “E2 Expr (/evansm/Kidney, mouse/Study 1, U74v2/WT E2 kidney (81036))” value (132403_at, AI788603, similar to TSC1_RAT HAMARTIN (TUBEROUS SCLEROSIS 1 PROTEIN HOMOLOG)) was 19. The “E2 Expr (/evansm/Kidney, mouse/Study 1, U74v2/WT E2 kidney (81036))” value (133139_at, AW122295, regulator of G-protein signaling 4) was 4, the “E2 Expr (/evansm/Kidney, mouse/Study 1, U74v2/WT E2 kidney (81036))” value (133672_at, AI451032, Mm.32389) was 11 and the “E2 Expr (/evansm/Kidney, mouse/Study 1, U74v2/WT E2 kidney (81036))” value (134303_at, AI553493, Mm.35319) was 11. The “E2 Expr (/evansm/Kidney, mouse/Study 1, U74v2/WT E2 kidney (81036))” value (136270_at, AI854101, Highly similar to CRFB MOUSE CORTICOTROPIN-RELEASING FACTOR BINDING PROTEIN PRECURSOR) was 12, the “E2 Expr (/evansm/Kidney, mouse/Study 1, U74v2/WT E2 kidney (81036))” value (137525_at, AI098139, Mm.38027) was 4 and the “E2 Expr (/evansm/Kidney, mouse/Study 1, U74v2/WT E2 kidney (81036))” value (139531_at, AW120795, Mm.45188) was 40. For the same molecule, the “E2 Expr (/evansm/Kidney, mouse/Study 1, U74v2/WT E2 kidney (81036))” value (162645_at, AI851427, protein kinase, cAMP dependent regulatory, type II beta) was 11, the “E2 Expr (/evansm/Kidney, mouse/Study 1, U74v2/WT E2 kidney (81036))” value (162964_at, AI854153, regulator of G-protein signaling 4) was 11 and the “E2 Expr (/evansm/Kidney, mouse/Study 1, U74v2/WT E2 kidney (81036))” value (162969_at, AW123298, Edil3 EGF-like repeats and discordin I-like domains 3) was 34. The “E2 Expr (/evansm/Kidney, mouse/Study 1, U74v2/WT E2 kidney (81036))” value (162976_at, AI838662, RIKEN cDNA 2700007F12 gene) was 10, the “E2 Expr (/evansm/Kidney, mouse/Study 1, U74v2/WT E2 kidney (81036))” value (163186_at, AI852882, RIKEN cDNA 2610510B01 gene) was 61 and the “E2 Expr (/evansm/Kidney, mouse/Study 1, U74v2/WT E2 kidney (81036))” value (163224_at, AI843147, IGSF1 Immunoglobulin superfamily, member 1) was 27. For the same molecule, the “E2 Expr (/evansm/Kidney, mouse/Study 1, U74v2/WT E2 kidney (81036))” value (163370_at, AI591488, Osbpl3 Oxysterol binding protien-like 3) was 10, the “E2 Expr (/evansm/Kidney, mouse/Study 1, U74v2/WT E2 kidney (81036))” value (163941_at, AI646761, RIKEN cDNA 1110018J23 gene) was 71 and the “E2 Expr (/evansm/Kidney, mouse/Study 1, U74v2/WT E2 kidney (81036))” value (164051_at, AV359458, Mm.17850) was 195. For the same molecule, the “E2 Expr (/evansm/Kidney, mouse/Study 1, U74v2/WT E2 kidney (81036))” value (164520_f_at, AV302474, Tmprss2 Transmembrane protease, serine 2) was 6, the “E2 Expr (/evansm/Kidney, mouse/Study 1, U74v2/WT E2 kidney (81036))” value (165032_i_at, AV365688, RIKEN cDNA 4933429H19 gene) was 42 and the “E2 Expr (/evansm/Kidney, mouse/Study 1, U74v2/WT E2 kidney (81036))” value (165248_f_at, AV035328, placental lactogen 2) was 38. The “E2 Expr (/evansm/Kidney, mouse/Study 1, U74v2/WT E2 kidney (81036))” value (165569_at, AI847273, Mm.22305) was 5, the “E2 Expr (/evansm/Kidney, mouse/Study 1, U74v2/WT E2 kidney (81036))” value (165678_i_at, AI482191, Mm.33178) was 11 and the “E2 Expr (/evansm/Kidney, mouse/Study 1, U74v2/WT E2 kidney (81036))” value (165710_at, AA815844, sodium channel, nonvoltage-gated 1 gamma) was 9. The “E2 Expr (/evansm/Kidney, mouse/Study 1, U74v2/WT E2 kidney (81036))” value (165772_at, AI851899, RIKEN cDNA 0610039J01 gene) was 29, the “E2 Expr (/evansm/Kidney, mouse/Study 1, U74v2/WT E2 kidney (81036))” value (165866_f_at, AV291803, ribosomal protein L12) was 40 and the “E2 Expr (/evansm/Kidney, mouse/Study 1, U74v2/WT E2 kidney (81036))” value (166021_at, AI481830, Mm.49448) was 12. For the same molecule, the “E2 Expr (/evansm/Kidney, mouse/Study 1, U74v2/WT E2 kidney (81036))” value (166843_at, AI851523, Mm.200318) was 174, the “E2 Expr (/evansm/Kidney, mouse/Study 1, U74v2/WT E2 kidney (81036))” value (166849_at, AI853080, Mm.40718) was 16 and the “E2 Expr (/evansm/Kidney, mouse/Study 1, U74v2/WT E2 kidney (81036))” value (167023_f_at, AV016619, biglycan) was 3. The “E2 Expr (/evansm/Kidney, mouse/Study 1, U74v2/WT E2 kidney (81036))” value (168876_f_at, AV044014, kallikrein 21) was 75, the “E2 Expr (/evansm/Kidney, mouse/Study 1, U74v2/WT E2 kidney (81036))” value (169068_i_at, AV206066, RIKEN cDNA 4930434J08 gene) was 2 and the “E2 Expr (/evansm/Kidney, mouse/Study 1, U74v2/WT E2 kidney (81036))” value (170686_f_at, AV362687, Mm.89845) was 58. The “E2 Expr (/evansm/Kidney, mouse/Study 1, U74v2/WT E2 kidney (81036))” value (170896_at, AV066592, Immune associated nucleotide 4) was 3, the “E2 Expr (/evansm/Kidney, mouse/Study 1, U74v2/WT E2 kidney (81036))” value (171390_i_at, AV299689, Mm.21070) was 3 and the “ABCC3 expression in kidney” value (mRNA level) was “induced mRNA levels”. For the same molecule, the “NTT73 expression in kidney” value (mRNA level) was “increased mRNA levels”, the “CIS2 expression in kidney” value (mouse, in vivo) was “induction” and the “COR1 (RDC1) expression in kidney” value (mouse, in vivo) was “induced expression”. For the same molecule, the “CYP27B1 expression in kidney” value (mouse, in vivo) was “induction”, the “ELF3 expression in kidney” value (mouse, in vivo) was “induced expression” and the “GNBP3 expression in kidney” value (mouse, in vivo) was “induced expression”. For the same molecule, the “PHD2 expression in kidney” value (mouse, in vivo) was “induced expression”, the “RGS3 expression in kidney” value (mouse, in vivo) was “induced expression” and the “STAT5A expression in kidney” value (mouse, in vivo) was “induced expression”. For the same molecule, the “STAT5B expression in kidney” value (mouse, in vivo) was “induced expression”.
